In brackets after ≈: the same amount, converted by molar mass.
Tested on: Staphylococcus aureus
Assay: antibiotic activity (MIC) on Staphylococcus aureus
Type: cell-based

## CO[C@H]1/C=C/O[C@@]2(C)Oc3c(C)c(O)c4c(O)c(c(/C=N/N5CCN(C)CC5)c(O)c4c3C2=O)NC(=O)/C(C)=C\C=C\[C@H](C)[C@H](O)[C@@H](C)[C@@H](O)[C@@H](C)[C@H](OC(C)=O)[C@@H]1C [rifampicin]
  MIC: ~0.01 µg/mL (≈ 0.0122 µM)
